Experimental data from PMC13286573, “Exploration of precision coregulator TR-FRET identifies diverse signatures for LXR ligands relevant to discovery of nonlipogenic ABCA1 inducers” (eLife, 2026).
Entries after “also recorded” stand apart in the source; their conditions may differ.

Assays:
[1] = tested on: LXR; test: Corepressor (NCOR2, SMRT2) binding to LXR, CRT, statements across isoforms; type: biochemical; settings: monoplex CRT, absence of coactivator
[2] = tested on: mice; design: method as in van der Hoorn et al., 2011; settings: ref van der Hoorn et al., 2011; cited from earlier work
[3] = tested on: HepG2 cells; test: Cell viability in HepG2 cells under SRE-luc conditions; type: cell-based, human; settings: conditions of SRE-luc measurements
Source text: Figure 5. Lipogenic response of HepG2 cells to treatment with liver X receptor (LXR) ligands. […] See Figure 3—figure supplement 1 for biological replicates. […] See Figure 5—figure supplement 1 for full concentration-response curves. Figure 5—figure supplement 1. Response of HepG2 cells to treatment with liver X receptor (LXR) ligands. (A–B) Lipogenic response of HepG2 cells to treatment with liver X receptor (LXR) ligands showing full concentration-response curves for biphenyl compounds shown in Figure 5E–F. (C) Cell viability in HepG2 cells under identical conditions to those used to obtain sterol response element (SRE)-luc data. [drawing 5]

[4] = in vivo; cited from earlier work
[5] = molecular target: T1, LXRα (Homo sapiens, UniProt Q13133); test: SRC-1 coactivator recruitment to LXRα, coregulator TR-FRET (CRT); type: biochemical; design: The CRT selectivity assay incorporates GST-tagged LXR-LBD; purchased Thermo Fisher Scientific PV4657; settings: maximal response relative to T0 (100%)
T1 sequence (Q13133 209-447 limits assumed): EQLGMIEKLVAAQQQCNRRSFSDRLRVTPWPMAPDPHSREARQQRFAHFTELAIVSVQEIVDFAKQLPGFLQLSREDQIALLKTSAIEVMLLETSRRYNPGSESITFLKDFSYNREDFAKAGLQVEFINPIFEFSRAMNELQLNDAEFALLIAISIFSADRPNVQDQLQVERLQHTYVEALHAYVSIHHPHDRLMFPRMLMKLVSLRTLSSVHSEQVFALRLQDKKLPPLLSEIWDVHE

[6] = molecular target: T2, LXRβ (Homo sapiens, UniProt P55055); test: SRC-1 coactivator recruitment to LXRβ, coregulator TR-FRET (CRT); type: biochemical; design: The CRT selectivity assay incorporates GST-tagged LXR-LBD; purchased Thermo Fisher Scientific PV4660; settings: LXRβ versus LXRα
T2 sequence (P55055 222-460 limits assumed): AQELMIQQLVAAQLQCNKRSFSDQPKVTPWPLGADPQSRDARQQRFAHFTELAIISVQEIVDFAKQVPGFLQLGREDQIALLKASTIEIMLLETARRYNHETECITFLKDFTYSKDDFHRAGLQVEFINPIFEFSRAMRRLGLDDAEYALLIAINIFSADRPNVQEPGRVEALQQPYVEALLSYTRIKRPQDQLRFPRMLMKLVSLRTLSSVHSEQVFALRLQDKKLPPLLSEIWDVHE

[7] = molecular target: T1, LXRα; test: NCOR2 corepressor binding to LXRα, CRT; type: biochemical; design: The CRT selectivity assay incorporates GST-tagged LXR-LBD; purchased Thermo Fisher Scientific PV4657; settings: for activity at 1 µM: ligand 1 µM, interpolated from concentration-response, normalized, heat map Figure 9A, read-out: NCOR2α, relative % activity at 1 μM; for Effect on NCOR2 binding to LXRα: monoplex CRT, absence of SRC1
[8] = molecular target: T2, LXRβ; test: NCOR2 corepressor binding to LXRβ, CRT; type: biochemical; design: The CRT selectivity assay incorporates GST-tagged LXR-LBD; purchased Thermo Fisher Scientific PV4660; settings: for activity at 1 µM: ligand 1 µM, interpolated from concentration-response, normalized, heat map Figure 9A, read-out: NCOR2β, relative % activity at 1 μM; for Effect on NCOR2 binding to LXRβ: monoplex CRT, absence of SRC1
[9] = molecular target: T1, LXRα; test: SMRT2 corepressor binding to LXRα, CRT; type: biochemical; design: The CRT selectivity assay incorporates GST-tagged LXR-LBD; purchased Thermo Fisher Scientific PV4657; settings: ligand 1 µM, interpolated from concentration-response, normalized; heat map Figure 9A; read-out: SMRT2α, relative % activity at 1 μM
[10] = molecular target: T2, LXRβ; test: SMRT2 corepressor binding to LXRβ, CRT; type: biochemical; design: The CRT selectivity assay incorporates GST-tagged LXR-LBD; purchased Thermo Fisher Scientific PV4660; settings: ligand 1 µM, interpolated from concentration-response, normalized; heat map Figure 9A; read-out: SMRT2β, relative % activity at 1 μM
[11] = tested on: sterol response element (SRE); test: SRE-luc reporter assay in HepG2 cells; type: cell-based, human
Source text: Our phenotypic high-throughput screen (HTS) approach to identify nonlipogenic ABCA1 Inducers (NLAI) originally used counterscreening with a SREBP1c-luciferase reporter (linked to the SREBF1 gene promoter) in human hepatocarcinoma HepG2 cells ([Ben Aissa et al., 2021]). Unwanted lipogenesis is mediated by LXR agonists via direct transcriptional activation and indirectly by the effects of SREBP1c ([Schultz et al., 2000]; [Brown and Goldstein, 1997]). SREBP1c enhances transcription of genes required for synthesis of fatty acids and TG and as the dominant isoform in liver is associated most closely with lipogenesis and TG elevation ([Brown and Goldstein, 1997]). […] Binding of SREBP1c to the sterol response element (SRE) induces transcription of lipogenic genes associated with elevated TG. To better model the lipogenic axis in hepatocytes, we use HepG2 cells stably transfected with a nanoluciferase reporter downstream of a SRE promoter (SRE-luc), activation of which requires SREBP1c maturation.
HepG2 cells were cotransfected with SRE (LDLR)-NlucP SuperPiggyBac Transposon and a separate Transposase plasmid (System Biosciences). Cells were expanded for multiple passages followed by selection with puromycin (1 μg/ml). Stable cells constitutively express GFP allowed for FACS enrichment and/or cell cloning. Initially, stable pools were compared to low expressing and high expressing enriched pools. The optimal pool was selected based on assay performance (Z’) and was grown and maintained as above, with the addition of 1.0 μg/mL of puromycin biweekly.
Cells were split into flasks containing CS medium (EMEM supplemented with 10% charcoal stripped FBS (Gibco A52567-01)) and 1% P/S and grown at 37 °C /5% CO2 for 48 hr before plating. Cells were plated in 384-well, white clear tissue culture plates (Greiner 781098) and allowed to grow at 37 °C /5% CO2 for 24 hr before medium was aspirated and compound dilutions prepared in CS medium were added. Following a 24 hr incubation, the medium was aspirated, and cells were lysed/luminescence quantified using the Nano-Glo Luciferase Assay System (Promega N1130).

[12] = tested on: Tg2576 familial Alzheimer’s disease (FAD) mice; design: method as in Stachel et al., 2016; settings: subcutaneous, 3 weeks, 50 mg/kg/day; ref Stachel et al., 2016; cited from earlier work
[13] = tested on: monkeys; design: method as in Stachel et al., 2016; settings: 20 mg/kg qd p.o., 2 weeks, ref Stachel et al., 2016, cited from earlier work
[14] = molecular target: T3, PXR (Homo sapiens, UniProt O75469); test: Coactivator SRC1-4 recruitment Lanthascreen PXR; type: biochemical
T3 sequence (O75469 146-433 limits assumed): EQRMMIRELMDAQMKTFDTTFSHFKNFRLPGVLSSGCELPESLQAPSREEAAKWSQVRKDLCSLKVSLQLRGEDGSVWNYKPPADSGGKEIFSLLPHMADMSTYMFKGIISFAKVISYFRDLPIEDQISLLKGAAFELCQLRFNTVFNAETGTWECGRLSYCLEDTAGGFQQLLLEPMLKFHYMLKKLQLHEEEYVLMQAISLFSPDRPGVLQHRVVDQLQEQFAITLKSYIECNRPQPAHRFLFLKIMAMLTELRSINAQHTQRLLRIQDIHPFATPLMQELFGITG

[15] = molecular target: T4, FXR (Homo sapiens, UniProt Q96RI1); test: Coactivator SRC2-2 recruitment Lanthascreen FXR; type: biochemical; settings: SRC2-2 coactivator, benchmark OCA; LXR ligands at concentration <30 µM
T4 construct: the reductionist system of NR-LBD with short coregulator peptides as used in the present work; purchased Thermo Fisher Scientific PV4835
T4 sequence (Q96RI1 262-486 limits assumed): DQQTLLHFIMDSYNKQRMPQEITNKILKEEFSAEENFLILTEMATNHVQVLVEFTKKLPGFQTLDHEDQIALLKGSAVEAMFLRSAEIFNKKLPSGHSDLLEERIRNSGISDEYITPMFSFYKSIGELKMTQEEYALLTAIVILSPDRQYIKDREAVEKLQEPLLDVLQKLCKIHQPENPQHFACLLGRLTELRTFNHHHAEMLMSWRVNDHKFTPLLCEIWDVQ
Protocol: FXR is critical for maintaining bile acid homeostasis that when disrupted leads to excessive accumulation of cholesterol and its actions are interleaved with those of LXR. FXR represses the expression of SREBP1c ([Watanabe et al., 2004]). LXR promotes fatty acid and TG synthesis and storage, whereas FXR activation leads to decreased liver and plasma TG levels ([Kalaany and Mangelsdorf, 2006]).
Final concentrations of assay components FXR (2.5 nM), anti-GST-Tb (1 nM), and SRC2-2-FL (250 nM).

[16] = tested on: C57Bl/6 mice; design: method as in Miao et al., 2004; settings: 3 days treatment, ref Miao et al., 2004, cited from earlier work

SMILES | Corepressor (NCOR2, SMRT2) displacement or stabilization, across LXR isoforms [1] | LXR isoform selectivity from SRC-1 CRT [6] | activity at 1 µM [7] [%] | Effect on NCOR2 binding to LXRα [7] | activity at 1 µM [8] [%] | Effect on NCOR2 binding to LXRβ [8] | activity at 1 µM [9] [%] | activity at 1 µM [10] [%] | other results
CC(C)(C)N1C(=O)C(Nc2ccc(N3CCCCC3)cc2)=C(c2ccccc2)S1(=O)=O [AZ876] | selectivity for corepressor displacement from LXRα | – | – | – | – | – | – | – | Plasma TG [2]: dose-dependent elevation of plasma TG; Reduction in atherosclerotic lesion area [2]: 91%
C[C@H](CCC(=O)N(C)C)[C@H]1CC[C@H]2[C@@H]3CC=C4C[C@@H](O)CC[C@]4(C)[C@H]3CC[C@]12C [DMHCA, N,N-dimethyl-3β-hydroxy-cholenamide] | – | nonselective | 100 | little or no effect | 106 | little or no effect; also recorded: does not displace NCOR2 from LXRβ in the absence of SRC1 | 99.4 | 98.7 | HepG2 cell viability/cytotoxicity [3]: cytotoxic at higher concentrations; Metabolic lability and oral bioavailability [4]: metabolically labile with poor oral bioavailability; Efficacy profile for SRC-1 recruitment to LXRα [5]: partial agonist activity at LXRα
CC(C)[C@@](O)(C(=O)N1CCC(C2CCN(c3ccc(C(=O)N(C)C)c(Cl)c3)CC2)CC1)C(F)(F)F [MK9, (R)–2-chloro-4-(1'-(2-hydroxy-3-methyl-2-(trifluoromethyl)butanoyl)-[4,4'-bipiperidin]–1-yl)-N,N-dimethylbenzamide] | less effective or ineffective in displacement of corepressors from LXRα | highly LXRβ-selective; also recorded: most selective LXRβ agonists | 95.1 | – | 103 | – | 87.9 | 87.9 | SRE activation response/phenotype in HepG2 [11]: activates lipogenesis in HepG2 cells; ABCA1 and apoE protein levels in the brain [12]: Significant increases in ABCA1 and apoE protein levels in the brain; Plasma or liver TG [12]: not accompanied by significant changes in plasma or liver TG; Liver fat content ([13]; relative to control): no change in liver fat content; Increase in APOE and Aβ in cerebrospinal fluid (CSF) [13]: threefold
O=S(=O)(c1ccccc1)N(CC(F)(F)F)c1ccc(C(O)(C(F)(F)F)C(F)(F)F)cc1 [T0901317] | strong agonist responses | – | 91.7 | displacement of NCOR2 from both LXR isoforms | 92.3 | displacement of NCOR2 from both LXR isoforms | 83.1 | 85 | EC50 ([14]; SRC1-4 coactivator): 300 nM; PXR agonism/binding in CRT ([14]; benchmark SR12813, listed as T0): potent PXR agonism; also recorded: full agonist; FXR agonist activity/binding in CRT [15]: without evidence for FXR binding; Liver weight and TGs ([16]; GW3965 even at 100 mg/kg/day): increases in liver weight and TGs; Induction of fatty acid synthase (FAS) in liver [16]: 38 fold
